{
  "source": "patent US20090221829A1",
  "about": "(priority 2005, published 2009)",
  "data": [
    {"test_system": "Candida albicans(KCTC 1940), Aspergillus niger (ATCC 9642) and Saccharomyces cerevisiae", "test": "Relative antifungal activity by agar dilution method (vs Miconazole);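 also: scores 5 to 7 mean a lower fungicidal concentration than Miconazole so higher is more potent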", "type": "cell-based", "settings": "agar dilution method; fungicidal concentration relative to control drug Miconazole (=4)", "text": "Novel compounds represented by the above chemical formula (I), and the relative activities in accordance with the agar dilution method in Sabouraud dextrose agar media, Czapek agar media and Yeast Extract-Peptone-Dextrose agar media for Candida albicans(KCTC 1940), Aspergillus niger (ATCC 9642) and Saccharomyces cerevisiae are described respectively in following Table 1.", "values": [
      {"smiles": "COc1cc2c(cc1OC)CC[N+](Cc1ccccc1F)=C2.[Cl-]", "note": "[Compound No. 1, 2-(2-fluorophenyl)methyl-3,4-dihydro-6,7-dimethoxy-isoquinolinium chloride]", "Relative Activity": 6},
      {"smiles": "COc1cc2c(cc1OC)C(C)=[N+](Cc1ccccc1F)CC2.[Cl-]", "note": "[Compound No. 2, 1-methyl-2-(2-fluorophenyl)methyl-3,4-dihydro-6,7-dimethoxy-isoquinolinium chloride]", "Relative Activity": 6},
      {"smiles": "COc1cc2c(cc1OC)C(CCl)=[N+](Cc1ccccc1F)CC2.[Cl-]", "note": "[Compound No. 3, 1-chloromethyl-2-(2-fluorophenyl)methyl-3,4-dihydro-6,7-dimethoxy-isoquinolinium chloride]", "Relative Activity": 6},
      {"smiles": "CCC1=[N+](Cc2ccccc2F)CCc2cc(OC)c(OC)cc21.[Cl-]", "note": "[Compound No. 4, 1-ethyl-2-(2-fluorophenyl)methyl-3,4-dihydro-6,7-dimethoxy-isoquinolinium chloride]", "Relative Activity": 6},
      {"smiles": "CCCC1=[N+](Cc2ccccc2F)CCc2cc(OC)c(OC)cc21.[Cl-]", "note": "[Compound No. 5, 1-propyl-2-(2-fluorophenyl)methyl-3,4-dihydro-6,7-dimethoxyisoquinolinium chloride]", "Relative Activity": 5},
      {"smiles": "COc1cc2c(cc1OC)C(C(C)C)=[N+](Cc1ccccc1F)CC2.[Cl-]", "note": "[Compound No. 6, 1-i-propyl-2-(2-fluorophenyl)methyl-3,4-dihydro-6,7-dimethoxyisoquinolinium chloride]", "Relative Activity": 5},
      {"smiles": "COc1cc2c(cc1OC)C(CCCCl)=[N+](Cc1ccccc1F)CC2.[Cl-]", "note": "[Compound No. 7, 1-(3-chloropropyl)-2-(2-fluorophenyl)methyl-3,4-dihydro-6,7-dimethoxyisoquinolinium chloride]", "Relative Activity": 5},
      {"smiles": "COc1cc2c(cc1OC)C(CC(C)C)=[N+](Cc1ccccc1F)CC2.[Cl-]", "note": "[Compound No. 8, 1-(2-methyl)propyl-2-(2-fluorophenyl)methyl-3,4-dihydro-6,7-dimethoxyisoquinolinium chloride]", "Relative Activity": 5},
      {"smiles": "CCCCCC1=[N+](Cc2ccccc2F)CCc2cc(OC)c(OC)cc21.[Cl-]", "note": "[Compound No. 9, 1-n-pentyl-2-(2-fluorophenyl)methyl-3,4-dihydro-6,7-dimethoxyisoquinolinium chloride]", "Relative Activity": 4},
      {"smiles": "CCCCCCC1=[N+](Cc2ccccc2F)CCc2cc(OC)c(OC)cc21.[Cl-]", "note": "[Compound No. 10, 1-n-hexyl-2-(2-fluorophenyl)methyl-3,4-dihydro-6,7-dimethoxyisoquinolinium chloride]", "Relative Activity": 4},
      {"smiles": "CCCCCCCCCCCCCCCC1=[N+](Cc2ccccc2F)CCc2cc(OC)c(OC)cc21.[Cl-]", "note": "[Compound No. 13, 1-n-pentadecyl-2-(2-fluorophenyl)methyl-3,4-dihydro-6,7-dimethoxyisoquinolinium chloride]", "Relative Activity": 2},
      {"smiles": "COc1cc2c(cc1OC)C(c1ccccc1F)=[N+](Cc1ccccc1F)CC2.[Cl-]", "note": "[Compound No. 14, 1-(2-fluorophenyl)-2-(2-fluorophenyl)methyl-3,4-dihydro-6,7-dimethoxyisoquinolinium chloride]", "Relative Activity": 6},
      {"smiles": "COc1cc2c(cc1OC)C(c1cccc(F)c1F)=[N+](Cc1ccccc1F)CC2.[Cl-]", "note": "[Compound No. 15, 1-(2,3-difluorophenyl)-2-(2-fluorophenyl)methyl-3,4-dihydro-6,7-dimethoxyisoquinolinium chloride]", "Relative Activity": 6},
      {"smiles": "COc1cc2c(cc1OC)C(c1ccc(F)cc1F)=[N+](Cc1ccccc1F)CC2.[Cl-]", "note": "[Compound No. 16, 1-(2,4-difluorophenyl)-2-(2-fluorophenyl)methyl-3,4-dihydro-6,7-dimethoxyisoquinolinium chloride]", "Relative Activity": 6},
      {"smiles": "COc1cc2c(cc1OC)C(c1ccc(F)c(F)c1)=[N+](Cc1ccccc1F)CC2.[Cl-]", "note": "[Compound No. 17, 1-(3,4-difluorophenyl)-2-(2-fluorophenyl)methyl-3,4-dihydro-6,7-dimethoxyisoquinolinium chloride]", "Relative Activity": 6},
      {"smiles": "COc1cc2c(cc1OC)C(c1cccc(Cl)c1)=[N+](Cc1ccccc1F)CC2.[Cl-]", "note": "[Compound No. 19, 1-(3-chlorophenyl)-2-(2-fluorophenyl)methyl-3,4-dihydro-6,7-dimethoxyisoquinolinium chloride]", "Relative Activity": 6},
      {"smiles": "COc1cc2c(cc1OC)C(c1ccc(Cl)cc1)=[N+](Cc1ccccc1F)CC2.[Cl-]", "note": "[Compound No. 20, 1-(4-chlorophenyl)-2-(2-fluorophenyl)methyl-3,4-dihydro-6,7-dimethoxyisoquinolinium chloride]", "Relative Activity": 6},
      {"smiles": "CCCCc1ccc(C2=[N+](Cc3ccccc3F)CCc3cc(OC)c(OC)cc32)cc1.[Cl-]", "note": "[Compound No. 21, 1-(4-n-butylphenyl)-2-(2-fluorophenyl)methyl-3,4-dihydro-6,7-dimethoxyisoquinolinium chloride]", "Relative Activity": 6},
      {"smiles": "COc1cc2c(cc1OC)C(c1cccc(C(F)(F)F)c1)=[N+](Cc1ccccc1F)CC2.[Cl-]", "note": "[Compound No. 23, 1-(3-trifluoromethylphenyl)-2-(2-fluorophenyl) methyl-3,4-dihydro-6,7-dimethoxyisoquinolinium chloride]", "Relative Activity": 6},
      {"smiles": "COc1cc2c(cc1OC)C(Cc1ccccc1F)=[N+](Cc1ccccc1F)CC2.[Cl-]", "note": "[Compound No. 24, 1-(2-fluorophenyl)methyl-2-(2-fluorophenyl)methyl-3,4-dihydro-6,7-dimethoxyisoquinolinium chloride]", "Relative Activity": 6},
      {"smiles": "COc1cc2c(cc1OC)C(C)=[N+](Cc1ccc(C(F)(F)F)cc1)CC2.[Cl-]", "note": "[Compound No. 26, 1-methyl-2-(4-trifluoromethylphenyl)methyl-3,4-dihydro-6,7-dimethoxyisoquinolinium chloride]", "Relative Activity": 6},
      {"smiles": "CCCCCC1=[N+](Cc2ccc(C(F)(F)F)cc2)CCc2cc(OC)c(OC)cc21.[Cl-]", "note": "[Compound No. 27, 1-n-pentyl-2-(4-trifluoromethylphenyl)methyl-3,4-dihydro-6,7-dimethoxyisoquinolinium chloride]", "Relative Activity": 4},
      {"smiles": "CCCCCCCC1=[N+](Cc2ccc(C(F)(F)F)cc2)CCc2cc(OC)c(OC)cc21.[Cl-]", "note": "[Compound No. 28, 1-n-heptyl-2-(4-trifluoromethylphenyl)methyl-3,4-dihydro-6,7-dimethoxyisoquinolinium chloride]", "Relative Activity": 4},
      {"smiles": "CCCCCCCCCCCC1=[N+](Cc2ccc(C(F)(F)F)cc2)CCc2cc(OC)c(OC)cc21.[Cl-]", "note": "[Compound No. 29, 1-n-undecyl-2-(4-trifluoromethylphenyl)methyl-3,4-dihydro-6,7-dimethoxyisoquinolinium chloride]", "Relative Activity": 1},
      {"smiles": "CCCCCCCCCCCCCCCC1=[N+](Cc2ccc(C(F)(F)F)cc2)CCc2cc(OC)c(OC)cc21.[Cl-]", "note": "[Compound No. 30, 1-n-pentadecyl-2-(4-trifluoromethylphenyl)methyl-3,4-dihydro-6,7-dimethoxyisoquinolinium chloride]", "Relative Activity": 1},
      {"smiles": "COc1cc2c(cc1OC)C(c1ccccc1F)=[N+](Cc1ccc(C(F)(F)F)cc1)CC2.[Cl-]", "note": "[Compound No. 31, 1-(2-fluorophenyl)-2-(4-trifluoromethylphenyl)methyl-3,4-dihydro-6,7-dimethoxyisoquinolinium chloride]", "Relative Activity": 6},
      {"smiles": "COc1cc2c(cc1OC)C(c1ccc(C(C)(C)C)cc1)=[N+](Cc1ccc(C(F)(F)F)cc1)CC2.[Cl-]", "note": "[Compound No. 32, 1-(4-t-butylphenyl)-2-(4-trifluoromethylphenyl)methyl-3,4-dihydro-6,7-dimethoxyisoquinolinium chloride]", "Relative Activity": 6},
      {"smiles": "COc1ccc(C[N+]2=C(C)c3cc(OC)c(OC)cc3CC2)cc1.[Cl-]", "note": "[Compound No. 33, 1-methyl-2-(4-methoxyphenyl)methyl-3,4-dihydro-6,7-dimethoxyisoquinolinium chloride]", "Relative Activity": 6},
      {"smiles": "CCCCCC1=[N+](Cc2ccc(OC)cc2)CCc2cc(OC)c(OC)cc21.[Cl-]", "note": "[Compound No. 34, 1-n-pentyl-2-(4-methoxyphenyl)methyl-3,4-dihydro-6,7-dimethoxyisoquinolinium chloride]", "Relative Activity": 4},
      {"smiles": "CCCCCCC1=[N+](Cc2ccc(OC)cc2)CCc2cc(OC)c(OC)cc21.[Cl-]", "note": "[Compound No. 35, 1-n-hexyl-2-(4-methoxyphenyl)methyl-3,4-dihydro-6,7-dimethoxyisoquinolinium chloride]", "Relative Activity": 4},
      {"smiles": "CCCCCCCC1=[N+](Cc2ccc(OC)cc2)CCc2cc(OC)c(OC)cc21.[Cl-]", "note": "[Compound No. 36, 1-n-heptyl-2-(4-methoxyphenyl)methyl-3,4-dihydro-6,7-dimethoxyisoquinolinium chloride]", "Relative Activity": 3},
      {"smiles": "CCCCCCCCCCCC1=[N+](Cc2ccc(OC)cc2)CCc2cc(OC)c(OC)cc21.[Cl-]", "note": "[Compound No. 37, 1-n-undecyl-2-(4-methoxyphenyl)methyl-3,4-dihydro-6,7-dimethoxyisoquinolinium chloride]", "Relative Activity": 2},
      {"smiles": "CCCCCCCCCCCCCCCC1=[N+](Cc2ccc(F)cc2)CCc2cc(OC)c(OC)cc21.[Cl-]", "note": "[Compound No. 38, 1-n-pentadecyl-2-(4-fluorophenyl)methyl-3,4-dihydro-6,7-dimethoxyisoquinolinium chloride]", "Relative Activity": 1},
      {"smiles": "COc1cc2c(cc1OC)C(C(C)C)=[N+](Cc1ccc(F)c(F)c1)CC2.[Cl-]", "note": "[Compound No. 40, 1-i-propyl-2-(3,4-difluorophenyl)methyl-3,4-dihydro-6,7-dimethoxyisoquinolinium chloride]", "Relative Activity": 6}
    ]}
  ]
}
